Assay results as given in patent US8772302B2, “GPR 119 agonists” (Cadila Healthcare Limited, priority 2009, dated 2014).
Like-named read-outs stand apart in the source and are kept apart here.

Tests used:
[1] = molecular target: T1, recombinant human GPR 119 receptor (Homo sapiens, UniProt Q8TDV5); assay: cAMP assay in stable cell line expressing recombinant human GPR 119 receptor; format: cell-based; conditions: intracellular cAMP
T1 construct: expressed in transfected cells
T1 sequence (Q8TDV5 1-335): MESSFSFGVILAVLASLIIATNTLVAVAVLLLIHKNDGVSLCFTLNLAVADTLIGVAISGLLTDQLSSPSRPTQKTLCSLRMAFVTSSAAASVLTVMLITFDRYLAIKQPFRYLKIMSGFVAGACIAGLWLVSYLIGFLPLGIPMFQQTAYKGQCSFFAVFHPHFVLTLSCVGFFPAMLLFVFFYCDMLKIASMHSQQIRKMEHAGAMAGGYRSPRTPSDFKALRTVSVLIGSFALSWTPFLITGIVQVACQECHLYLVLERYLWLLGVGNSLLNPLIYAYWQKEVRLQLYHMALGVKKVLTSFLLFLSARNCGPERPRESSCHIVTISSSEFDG
Source text: cAMP assay: A stable cell line expressing recombinant human GPR 119 receptor was established and used to investigate the efficacy of the compounds of the invention based on the intracellular levels of cyclic AMP (cAMP) using commercially available cAMP kits. Compounds of the invention produced a concentration dependent increase in cAMP level and EC50 values of representative compounds were provided in table 1.

Sprague Dawley rats = assay: Feed intake in Sprague Dawley rats; format: in vivo, rat; conditions: cumulative feed intake vs vehicle; for inhibition in vivo at 25 mg/kg / inhibition in vivo at 50 mg/kg: Rattus norvegicus; for inhibition in vivo at 25 mg/kg: ip
Source text: In Vivo Efficacy Studies: Feed Intake in Sprague Dawley Rats:
Sprague Dawley rats of 6-8 week age are used for this experiment they are kept for acclimatization in reversed light/dark cycle for 15 days. Animals will have free access to a standard chow diet and water during acclimatization period. After 15 days reversed light/dark cycle acclimatization animals are trained for fasting induced feed intake for 5 days till they show consistent feed intake. Grouping was done based on the monitored feed intake during the training days. On treatment day each group of animals are dosed with test compound or vehicle by appropriate routes of administration (orally or intraperitoneally). Exactly 30 min. after treatment, measured amount of standard chow diet is provided and recorded as O-min feed offered. Then subsequently 2, 4, 6 and 24 hour after O-min, feed intake is measured and the cumulative feed intakes are calculated. The change in cumulative feed intake as compared to vehicle treated control at each time point is calculated for test compound.

C57/BL6 mice = assay: Oral glucose tolerance test (OGTT) in C57/BL6 mice; format: in vivo, mouse; conditions: serum glucose AUC, single oral dose, glucose load 3 gm/kg; for inhibition in vivo at 50 mg/kg: Mus musculus, 2 h, read-out: % reduction in AUC at 50 mg/kg
Experimental: Oral Glucose Tolerance Tests (OGTT) in C57/BL6 Mice:
C57/BL6 mice of 6-8 week age are used for this experiment. Animals are grouped based on non-fasting serum glucose levels and kept on fasting for overnight (day before OGTT). On the experiment day, […], 30 min post dosing animals are bled for basal glucose level estimation and at the same time glucose load (3 gm/kg) will be administered per orally. Blood is collected at time points corresponding to 20, 40, 60 and 120 min after glucose load administration. Serum is separated for determination of glucose levels and change in area under curve for glucose is calculated and provided in table 4 as % reduction in AUC.

[2] = intraperitoneal, 25 mg/kg, 2 hour, read-out: % reduction in food in take, 2 hour
[3] = intraperitoneal, 25 mg/kg, 4 hour, read-out: % reduction in food in take, 4 hour
[4] = intraperitoneal, 25 mg/kg, 6 hour, read-out: % reduction in food in take, 6 hour
[5] = intraperitoneal, 25 mg/kg, 24 hour, read-out: % reduction in food in take, 24 hour
[6] = oral, 50 mg/kg, 2 hour, read-out: % reduction in food in take, 2 hour
[7] = oral, 50 mg/kg, 4 hour, read-out: % reduction in food in take, 4 hour
[8] = oral, 50 mg/kg, 6 hour, read-out: % reduction in food in take, 6 hour
[9] = oral, 50 mg/kg, 24 hour, read-out: % reduction in food in take, 24 hour

| EC50 [1] | Compound | inhibition in vivo at 25 mg/kg (Sprague Dawley rats; [2]) | inhibition in vivo at 25 mg/kg (Sprague Dawley rats; [3]) | inhibition in vivo at 25 mg/kg (Sprague Dawley rats; [4]) | inhibition in vivo at 25 mg/kg (Sprague Dawley rats; [5]) | inhibition in vivo at 50 mg/kg (C57/BL6 mice) | also measured |
| --- | --- | --- | --- | --- | --- | --- | --- |
| 13 nM | Cc1c(Oc2ccc([C@H]3CO[S@@](=O)OC3)cc2)ncnc1OC1CCN(c2nc(C(C)C)no2)CC1 [Example 3, cis-5-(4-((6-((1-(3-isopropyl-1,2,4-oxadiazol-5-yl)piperidin-4-yl)oxy)-5-methylpyrimidin-4-yl)oxy)phenyl)-1,3,2-dioxathiane 2-oxide] | 34% | 25% | 25% | 17% | 23% | – |
| 11 nM | Cc1c(Oc2ccc([C@H]3CO[S@](=O)OC3)cc2)ncnc1OC1CCN(c2nc(C(C)C)no2)CC1 [Example 4, trans-5-(4-((6-((1-(3-isopropyl-1,2,4-oxadiazol-5-yl)piperidin-4-yl)oxy)-5-methylpyrimidin-4-yl)oxy)phenyl)-1,3,2-dioxathiane 2-oxide] | 40% | 33% | 21% | – | 31% | inhibition in vivo at 50 mg/kg (Sprague Dawley rats; [6]): 30%; inhibition in vivo at 50 mg/kg (Sprague Dawley rats; [7]): 24%; inhibition in vivo at 50 mg/kg (Sprague Dawley rats; [8]): 9.5%; inhibition in vivo at 50 mg/kg (Sprague Dawley rats; [9]): 6% |
| 12 nM | CCc1cnc(N2CCC(Oc3ncnc(Oc4ccc([C@H]5CO[S@@](=O)OC5)cc4)c3C)CC2)nc1 [Example 9, cis-5-(4-((6-((1-(5-ethylpyrimidin-2-yl)piperidin-4-yl)oxy)-5-methylpyrimidin-4-yl)oxy)phenyl)-1,3,2-dioxathiane 2-oxide] | 44% | 37% | 30% | 24% | 31% | inhibition in vivo at 50 mg/kg (Sprague Dawley rats; [6]): 25%; inhibition in vivo at 50 mg/kg (Sprague Dawley rats; [7]): 12%; inhibition in vivo at 50 mg/kg (Sprague Dawley rats; [8]): 6%; inhibition in vivo at 50 mg/kg (Sprague Dawley rats; [9]): 2% |
| 73.6 nM | CCc1cnc(N2CCC(Oc3ncnc(Oc4ccc([C@H]5CO[S@](=O)OC5)cc4)c3C)CC2)nc1 [Example 10, trans-5-(4-((6-((1-(5-ethylpyrimidin-2-yl)piperidin-4-yl)oxy)-5-methylpyrimidin-4-yl)oxy)phenyl)-1,3,2-dioxathiane 2-oxide] | – | – | – | – | 29% | inhibition in vivo at 50 mg/kg (Sprague Dawley rats; [6]): 36%; inhibition in vivo at 50 mg/kg (Sprague Dawley rats; [7]): 29%; inhibition in vivo at 50 mg/kg (Sprague Dawley rats; [8]): 15%; inhibition in vivo at 50 mg/kg (Sprague Dawley rats; [9]): 15% |
| 27 nM | Cc1c(Oc2ccc([C@H]3CO[S@@](=O)OC3)cc2)ncnc1OC1CCN(C(=O)OCC(C)C)CC1 [Example 27, cis-isobutyl 4-((5-methyl-6-(4-(2-oxido-1,3,2-dioxathian-5-yl)phenoxy)pyrimidin-4-yl)oxy)piperidine-1-carboxylate] | 35% | 35% | 31% | 17% | 30% | inhibition in vivo at 50 mg/kg (Sprague Dawley rats; [6]): 23%; inhibition in vivo at 50 mg/kg (Sprague Dawley rats; [7]): 20%; inhibition in vivo at 50 mg/kg (Sprague Dawley rats; [8]): 23%; inhibition in vivo at 50 mg/kg (Sprague Dawley rats; [9]): 5% |

Further lines, the compound ahead of its results:

| Compound | EC50 [1] | inhibition in vivo at 25 mg/kg (Sprague Dawley rats; [2]) | inhibition in vivo at 25 mg/kg (Sprague Dawley rats; [3]) | inhibition in vivo at 25 mg/kg (Sprague Dawley rats; [4]) | inhibition in vivo at 25 mg/kg (Sprague Dawley rats; [5]) | inhibition in vivo at 50 mg/kg (C57/BL6 mice) | also measured |
| --- | --- | --- | --- | --- | --- | --- | --- |
| CC(C)c1noc(C2CCN(c3ncnc(Oc4ccc([C@H]5CO[S@@](=O)OC5)cc4)c3[N+](=O)[O-])CC2)n1 [Example 1, cis-5-(4-((6-(4-(3-isopropyl-1,2,4-oxadiazol-5-yl)piperidin-1-yl)-5-nitropyrimidin-4-yl)oxy)phenyl)-1,3,2-dioxathiane 2-oxide] | 31 nM | 45% | 24% | 8.5% | 4% | 23% | – |
| Cc1c(Oc2ccc([C@H]3CO[S@@](=O)OC3)cc2)ncnc1OC1CCN(C(=O)OC(C)(C)C)CC1 [Example 15, cis-tert-butyl 4-((5-methyl-6-(4-(2-oxido-1,3,2-dioxathian-5-yl)phenoxy)pyrimidin-4-yl)oxy)piperidine-1-carboxylate] | 4.2 nM | 47% | 31% | 28% | 19% | – | – |
| Cc1c(Oc2ccc([C@H]3CO[S@](=O)OC3)cc2)ncnc1OC1CCN(C(=O)OC(C)(C)C)CC1 [Example 16, trans-tert-butyl 4-((5-methyl-6-(4-(2-oxido-1,3,2-dioxathian-5-yl)phenoxy)pyrimidin-4-yl)oxy)piperidine-1-carboxylate] | 15 nM | 21% | 27% | 10% | – | 34% | – |
| CC(C)(C)OC(=O)N1CCC(c2nc(COc3ccc([C@H]4CO[S@@](=O)OC4)cc3)cs2)CC1 [Example 17, cis-tert-butyl 4-(4-((4-(2-oxido-1,3,2-dioxathian-5-yl)phenoxy)methyl)thiazol-2-yl)piperidine-1-carboxylate] | – | – | – | – | – | – | % reduction in food in take, 2 hour (Sprague Dawley rats; intraperitoneal, 25 mg/kg, 2 hour): 34%; % reduction in food in take, 4 hour (Sprague Dawley rats; intraperitoneal, 25 mg/kg, 4 hour): 34%; % reduction in food in take, 6 hour (Sprague Dawley rats; intraperitoneal, 25 mg/kg, 6 hour): 24%; % reduction in food in take, 24 hour (Sprague Dawley rats; intraperitoneal, 25 mg/kg, 24 hour): 13%; % reduction in AUC at 50 mg/kg (C57/BL6 mice): 34% |
| CC(C)(C)OC(=O)N1CCC(c2nc(COc3ccc(C4COS(=O)OC4)cc3)cs2)CC1 (stereo not drawn) [Example 18, trans-tert-butyl 4-(4-((4-(2-oxido-1,3,2-dioxathian-5-yl)phenoxy)methyl)thiazol-2-yl)piperidine-1-carboxylate] | – | – | – | – | – | – | % reduction in AUC at 50 mg/kg (C57/BL6 mice): 11% |
| Cc1c(OCCCC2CCN(C(=O)OC(C)(C)C)CC2)ncnc1Oc1ccc(C2COS(=O)OC2)cc1 (stereo not drawn) [Example 20, cis-tert-butyl 4-(3-((5-methyl-6-(4-(2-oxido-1,3,2-dioxathian-5-yl)phenoxy)pyrimidin-4-yl)oxy)propyl)piperidine-1-carboxylate] | – | – | – | – | – | – | % reduction in AUC at 50 mg/kg (C57/BL6 mice): 25% |
| CCOC(=O)N1CCC(Oc2ncnc(Oc3ccc(C[C@H]4CO[S@@](=O)OC4)cc3)c2C)CC1 [Example 39, cis-ethyl 4-((5-methyl-6-(4-((2-oxido-1,3,2-dioxathian-5-yl)methyl)phenoxy)pyrimidin-4-yl)oxy)piperidine-1-carboxylate] | 94 nM | – | – | – | – | – | – |
| CCc1cnc(N2CCC(Oc3ccc(C[C@H]4CO[S@](=O)OC4)cc3)CC2)nc1 [Example 60, trans-5-(4-((1-(5-ethylpyrimidin-2-yl)piperidin-4-yl)oxy)benzyl)-1,3,2-dioxathiane 2-oxide] | – | – | – | – | – | – | % reduction in food in take, 2 hour (Sprague Dawley rats; oral, 50 mg/kg, 2 hour): 39%; % reduction in food in take, 4 hour (Sprague Dawley rats; oral, 50 mg/kg, 4 hour): 31%; % reduction in food in take, 6 hour (Sprague Dawley rats; oral, 50 mg/kg, 6 hour): 24%; % reduction in food in take, 24 hour (Sprague Dawley rats; oral, 50 mg/kg, 24 hour): 5.3% |
| Cc1c(Oc2ccc(C[C@H]3CO[S@@](=O)OC3)cc2Cl)ncnc1OC1CCN(C(=O)OC(C)(C)C)CC1 [Example 63, cis-tert-butyl 4-((6-(2-chloro-4-((2-oxido-1,3,2-dioxathian-5-yl)methyl)phenoxy)-5-methylpyrimidin-4-yl)oxy)piperidine-1-carboxylate] | – | – | – | – | – | – | % reduction in food in take, 2 hour (Sprague Dawley rats; oral, 50 mg/kg, 2 hour): 44%; % reduction in food in take, 4 hour (Sprague Dawley rats; oral, 50 mg/kg, 4 hour): 41%; % reduction in food in take, 6 hour (Sprague Dawley rats; oral, 50 mg/kg, 6 hour): 25%; % reduction in food in take, 24 hour (Sprague Dawley rats; oral, 50 mg/kg, 24 hour): 15%; % reduction in AUC at 50 mg/kg (C57/BL6 mice): 31% |
